According to the CheMixHub viscosity set:

Experiment: xn = mol fraction of the nth substance listed
Conditions: 101 kPa

Cc1ccccc1C + COCCO
viscosity [mPa·s]
Conditions | 298.15 K | 308.15 K
x2 = 0.0517 | 0.769 | 0.666
x2 = 0.1491 | 0.795 | 0.686
x2 = 0.2491 | 0.83 | 0.714
x2 = 0.3509 | 0.877 | 0.749
x2 = 0.4485 | 0.934 | 0.79
x2 = 0.4919 | 0.963 | 0.811
x2 = 0.5537 | 1.009 | 0.845
x2 = 0.6432 | 1.088 | 0.901
x2 = 0.7525 | 1.206 | 0.983
x2 = 0.8492 | 1.334 | 1.07
x2 = 0.9547 | 1.506 | 1.185

OCCOCCOCCO + COCCO
viscosity [mPa·s]
Conditions | 293.15 K | 298.15 K | 303.15 K
x2 = 0.0555 | 35.94 | 30.26 | 26.08
x2 = 0.1005 | 32.08 | 27.25 | 23.69
x2 = 0.1526 | 27.98 | 24.06 | 21.13
x2 = 0.201 | 24.53 | 21.36 | 18.93
x2 = 0.2544 | 21.12 | 18.65 | 16.69
x2 = 0.3016 | 18.45 | 16.49 | 14.87
x2 = 0.3421 | 16.37 | 14.79 | 13.44
x2 = 0.4006 | 13.74 | 12.58 | 11.54
x2 = 0.4493 | 11.83 | 10.95 | 10.13
x2 = 0.4936 | 10.3 | 9.622 | 8.98
x2 = 0.5499 | 8.592 | 8.124 | 7.664
x2 = 0.6007 | 7.271 | 6.95 | 6.621
x2 = 0.6501 | 6.157 | 5.943 | 5.714
x2 = 0.7042 | 5.105 | 4.973 | 4.825
x2 = 0.7531 | 4.289 | 4.207 | 4.115
x2 = 0.7931 | 3.714 | 3.65 | 3.584
x2 = 0.8455 | 3.061 | 2.991 | 2.954
x2 = 0.9009 | 2.487 | 2.385 | 2.346
x2 = 0.95 | 2.069 | 1.924 | 1.856

Cl[Si](Cl)(Cl)Cl + COCOC
303.1 K
Conditions | viscosity [mPa·s]
x2 = 0.0989 | 0.419
x2 = 0.1906 | 0.412
x2 = 0.2879 | 0.402
x2 = 0.3682 | 0.405
x2 = 0.3933 | 0.41
x2 = 0.4424 | 0.414
x2 = 0.5106 | 0.428
x2 = 0.596 | 0.458
x2 = 0.6589 | 0.472
x2 = 0.7083 | 0.461
x2 = 0.7984 | 0.434
x2 = 0.8477 | 0.414
x2 = 0.9026 | 0.369
